Structures are written as SMILES.

The values that follow come from patent US20200338039A1, “METHODS AND MATERIALS FOR ASSESSING BIOLOGICAL AGE AND SLOWING THE PROGRESS OF EXCESSIVE BIOLOGICAL AGING” (The Scripps Research Institute, priority 2017, published 2020).

Assay [1] deals with mice, 85 weeks of age. Put plainly: Late-life fisetin diet in aged mice: lifespan, tissue function, histopathology. In kind it is in vivo, mouse. To be noted: diet containing 500 ppm fisetin from 85 weeks of age. Here is the method: At 85-weeks of age (>20 mth), male and female mice were administered a diet containing 500 ppm (500 mg/kg) fisetin or fed a control diet with no drug. n=8-9 mice per group. In the treatment group, median lifespan was increased 17% and maximum lifespan increased 12%. Log rank (Mantel-Cox) test. […] Levels of MCP-1 were measured in the serum of these mice by ELISA. n=5 mice per group. One-way ANOVA with Tukey's multiple comparison test. Values represented as the mean SEM, ***p<0.001, ****p<0.0001. Therefore, circulating levels of MCP-1 correlate with drug-induced improvements in health and lifespan (FIG. 12).

Assay [2] has as its system C57BL/6J mice. Put plainly: Composite lesion scores (geropathology grading, histology) in old mice on rapamycin diet. The assay is classed as in vivo, mouse. Conditions: two year-old C57BL/6J mice; rapamycin diet 14 ppm females / 42 ppm males for two months; average. From the text: Two year-old C57BL/6J mice were fed a diet containing rapamycin (14 ppm for females or 42 ppm for males) or a control diet for two months. […] In addition, rapamycin attenuated composite lesion scores in kidneys (FIG. 7), liver, and lungs of these mice by an average of 40, 41, and 29 percent, respectively.
Two year old C57BL/6J mice were obtained from the NIA Rodent Colony and treated with encapsulated rapamycin (Rapamycin Holdings, San Antonio Tex.) at 14 ppm for females and 42 ppm for males, or control (encapsulated only) diet for 8 weeks. Mice were sacrificed at 26 months and serum collected preceding necropsy. Ercc1^−/Δ mice were treated with Dasatinib and Quercetin as described elsewhere (see, e.g., Zhu et al., 2015 Aging cell. 14(4):644-658). Briefly, Ercc1^−/Δ mice were treated weekly with a combination of Dasatinib (5 mg/kg) and Quercetin (50 mg/kg) starting at 4-6 weeks of age. Therapeutics were administered in 10% PEG400 by oral gavage. Litters with multiple Ercc1^−/Δ mice were used to enable comparison of sibling pairs that were treated with therapeutic vs vehicle only. Mice (n=5-6 per group) were sacrificed at 16 weeks and serum collected by cardiac puncture.
Mouse tissues were collected at necropsy and placed in 10% buffered formalin for 48 hours, transferred to 70% alcohol, and subsequently processed into paraffin blocks for sectioning and hematoxylin and eosin staining. Histology slides were validated for age-related lesions by a veterinary pathologist and scored for lesion severity to create a composite lesion score for age-related renal pathology in each animal (see, e.g., Ladiges 2016 Pathobiol Aging Age Relat Dis. 6:31478).

The mark [3] stands for this setting: male and female mice, vs control diet.

Turning to `O=c1c(O)c(-c2ccc(O)c(O)c2)oc2cc(O)ccc12` [fisetin], in assay [1], the age-related histopathology result is “decreased in multiple organs” and the tissue function result was “improved”. Besides, in assay [1] (setting [3]), the “increase in maximum lifespan” value is reported as 12% and the “increase in median lifespan” value was found to be 17%.

`CO[C@H]1C[C@@H]2CC[C@@H](C)[C@@](O)(O2)C(=O)C(=O)N2CCCC[C@H]2C(=O)O[C@H]([C@H](C)C[C@@H]2CC[C@@H](O)[C@H](OC)C2)CC(=O)[C@H](C)/C=C(\C)[C@@H](O)[C@@H](OC)C(=O)[C@H](C)C[C@H](C)/C=C/C=C/C=C/1C` [rapamycin]: in assay [2], the “attenuation of composite lesion score, kidneys” value is recorded as 40%; the “attenuation of composite lesion score, liver” value came out at 41%; the “attenuation of composite lesion score, lungs” value was found to be 29%.
